The values below are quoted from earlier work in publication PMC5548886 (Cancer Medicine, 2017).

Data set [1] has as its system advanced or metastatic melanoma. Particulars: phase II trial; cited from earlier work.
For a further data set, the system named is pERK. More on the design: method as in PMID 20823850. The settings on record: at the recommended phase II dose; cited from earlier work.

`CNC(=O)c1ccccc1Sc1ccc2c(/C=C/c3ccccn3)n[nH]c2c1` [axitinib]: the response rate in data set [1] is given as ~ 19%. For the molecule `CCCS(=O)(=O)Nc1ccc(F)c(C(=O)c2c[nH]c3ncc(-c4ccc(Cl)cc4)cc23)c1F` [vemurafenib], in the data set on pERK, the pERK suppression entry is “over 80%”.
